Like-named read-outs stand apart in the source and are kept apart here.

Type in all cases: biochemical
The target of experiment [1] is T1, recombinant HGFA serine protease domain (Homo sapiens, UniProt Q04756).
T1 construct: His6 tag (N); seven amino acid spacer plus TEV cleavage site (N); made in house; host or cells: High 5 insect cells (baculovirus; Sf9 for virus production)
T1 sequence (Q04756 373-655): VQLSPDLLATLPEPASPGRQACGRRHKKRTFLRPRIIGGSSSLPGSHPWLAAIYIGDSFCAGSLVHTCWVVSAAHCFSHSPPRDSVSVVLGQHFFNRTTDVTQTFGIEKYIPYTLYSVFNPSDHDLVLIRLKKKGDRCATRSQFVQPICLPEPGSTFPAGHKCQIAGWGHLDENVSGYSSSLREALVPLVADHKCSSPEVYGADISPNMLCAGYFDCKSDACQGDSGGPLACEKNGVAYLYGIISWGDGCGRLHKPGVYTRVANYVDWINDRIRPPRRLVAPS
The experiment is described as follows: Fluorescent kinetic enzyme assay of HGFA activity (Boc-QLR-AMC). The source says:
The compounds prepared in Examples 1 to 8 were subjected to a series of inhibitions studies. The compounds were first tested in an HGFA enzymatic assay using the fluorogenic substrate Boc-QLR-AMC with a recombinant form of the HGFA serine protease domain.
This PCR product was cloned into the SfoI-HindIII sites of a modified pFastBac HT baculovirus expression vector (Addgene, Cambridge, MA). This vector contains a six amino His tag followed by a seven amino spacer and a seven amino acid TEV cleavage site placed immediately downstream of the honey bee melittin signal peptide. Using a modified Bac to Bac Expression System (Life Technologies, Carlsbad, CA), recombinant HGFA bacmids were obtained by transforming DH10Bac Escherichia coli cells. To obtain HGFA containing baculovirus, purified bacmids were transfected into Sf9 insect cells. After 5 days in culture at 27° C., media was harvested from transfected Sf9 cells. This media was used to prepare baculovirus infected insect cells (BIICs). These BIIICs were used to infect High 5 insect cells. Four days post infection, media was harvested, and recombinant protein was prepared as follows. Media was chilled to 4° C. and spun at 4000×g for 20 minutes (all subsequent steps were performed at 4° C. unless noted). Clarified media was passed first through a Whatman GF/B 1 um (#1821-047, GE Healthcare Life Sciences, Piscataway, NJ) and then a 0.22 μm PES membrane (#99955, TPP Techno Plastic Products AG, Trasadingen, Switzerland) and then concentrated using a Pall Centramate tangential flow system and Centramate T-series Cassette (#OS010T12, Pall Corporation, Port Washington, NY). Concentrated media was then buffer exchanged in two steps, five volumes of 50 mM Na-phosphate, 500 mM NaCl, pH 6.2, followed by five volumes of 50 mM Na-phosphate, 500 mM NaCl, pH 7.5. […] After mixing this slurry for 12 hours, nickel agarose beads were allowed to settle by gravity and then loaded into a column. Beads were washed with buffer (25 mM Na-phosphate, 500 mM NaCl, 25 mM imidazole, pH 8) and the bound protein eluted using (25 mM Na-phosphate, 500 mM NaCl, 250 mM imidazole, pH 8). Using a Amicon Ultra-4 Centrifugal filters (#UFC801008, Merck Millipore, Ltd., Tullagreen, Ireland), peak protein fractions were concentrated and run over a Superdex-200 10/300 GL column (GE Healthcare Life Sciences, Piscataway, NJ) in 10 mM Tris, 200 mM NaCl, 0.2 mM EDTA, pH 8. HGFA containing fractions were pooled, concentrated, made 50% glycerol, and stored at minus 20° C. Protein was quantitated using a modified Lowry protein assay (#500-0006, Bio-Rad Laboratories, Hercules, CA) and specific activity determined using Boc-QLR-AMC substrate.
Fluorescent kinetic enzyme assays of HGFA, matriptase, and hepsin activity: Compounds (0-20 μM final concentration in reaction) were diluted in DMSO (2% DMSO final concentration in reaction) and then mixed with either recombinant HGFA serine protease domain, matriptase (#3946-SE-010, R&D Systems, Minneapolis, Minnesota), or activated hepsin* (#4776-SE-010, R&D Systems, Minneapolis, Minnesota) in black 384 well plates (Corning #3575. Coming, NY). The final assay concentration for HGFA, matriptase, and hepsin, were 6.25 nM, 0.2 nM, and 0.3 nM, respectively in TNC buffer (25 mM Tris, 150 mM NaCl, 5 mM CaCl2, 0.01% Triton X-100, pH 8). After thirty minutes of incubation at room temperature, Boc-QLR-AMC substrate was added (HGFA assay) or Boc-QAR-AMC substrate (matriptase, and hepsin assays). Fluorescence (excitation at 380 nm and emission at 460 nm) was kinetically measured at room temperature over a 1 hour time period using a Biotek Synergy 2 plate reader (Winnoski, VT). From a plot of the mean reaction velocity versus the inhibitor concentration, a non-linear four parameter curve fit was performed using GraphPad Prism (GraphPad Software, San Diego, CA) to determine inhibitor IC50s. The IC50 values were determined from the average of three or more separate experimental determinations. […]

The target in a further experiment is T2, activated hepsin (Homo sapiens, UniProt P05981).
T2 construct: purchased R&D Systems 4776-SE-010
As to the kind of experiment: Fluorescent kinetic enzyme assay of hepsin activity (Boc-QAR-AMC).

A further experiment has as its target T3, matriptase (Homo sapiens, UniProt Q9Y5Y6).
T3 construct: purchased R&D Systems 3946-SE-010
T3 sequence (Q9Y5Y6 615-855 limits assumed): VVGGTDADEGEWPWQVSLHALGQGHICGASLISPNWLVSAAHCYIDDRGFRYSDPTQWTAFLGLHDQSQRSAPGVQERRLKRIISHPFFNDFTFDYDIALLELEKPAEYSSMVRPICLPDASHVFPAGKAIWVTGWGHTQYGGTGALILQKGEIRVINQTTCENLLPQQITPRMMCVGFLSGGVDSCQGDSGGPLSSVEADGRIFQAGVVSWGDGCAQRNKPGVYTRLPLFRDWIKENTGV
As to the kind of experiment: Fluorescent kinetic enzyme assay of matriptase activity (Boc-QAR-AMC). Conditions: Table 2; read-out: Matriptase (IC50 nM).

Where [2] appears, read: Table 3, average of three experiments, read-out: HGFA IC50.
The mark [3] stands for this setting: Example 12, read-out: IC50 for hepsin.
Where [4] appears, read: Table 2, read-out: HGFA (IC50 nM).
Setting [5] is: Table 2, read-out: Hepsin (IC50 nM).

T2 sequence (P05981 163-417 limits assumed): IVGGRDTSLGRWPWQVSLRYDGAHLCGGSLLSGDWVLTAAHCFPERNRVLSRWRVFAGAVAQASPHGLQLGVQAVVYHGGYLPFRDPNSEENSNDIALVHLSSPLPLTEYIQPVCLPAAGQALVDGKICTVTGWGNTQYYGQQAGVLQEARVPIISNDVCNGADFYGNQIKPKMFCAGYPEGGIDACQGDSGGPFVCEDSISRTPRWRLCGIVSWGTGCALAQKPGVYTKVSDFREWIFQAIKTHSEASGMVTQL
T2 sequence (P05981 1-162 partner limits assumed): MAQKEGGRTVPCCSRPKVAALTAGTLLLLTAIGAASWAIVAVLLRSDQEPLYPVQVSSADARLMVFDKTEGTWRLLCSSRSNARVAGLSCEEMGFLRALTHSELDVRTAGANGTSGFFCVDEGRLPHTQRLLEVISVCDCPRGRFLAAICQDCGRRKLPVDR
Description for matriptase: After thirty minutes of incubation at room temperature, Boc-QLR-AMC substrate was added (HGFA assay) or Boc-QAR-AMC substrate (matriptase, and hepsin assays). […] From a plot of the mean reaction velocity versus the inhibitor concentration, a non-linear four parameter curve fit was performed using GraphPad Prism (GraphPad Software, San Diego, CA) to determine inhibitor IC50s. The IC50 values were determined from the average of three or more separate experimental determinations. Apparent Ki values were calculated using the Cheng and Prusoff equation (Ki=IC50/(1+[S]/Km).
Inhibitors were pre-incubated with protease followed by the addition of the substrate. Inhibition of substrate proteolysis derived fluorescence was monitored kinetically over a period of one hour.

Turning to `CC(C)C[C@H](NC(=O)OC1(c2ccccc2)CCNCC1)C(=O)N[C@@H](CCCNC(=N)N)C(=O)c1nc2ccccc2s1` [Compound 8a, 4-phenylpiperidin-4-yl ((S)-1-(((S)-1-(benzo[d]thiazol-2-yl)-5-guanidino-1-oxopentan-2-yl)amino)-4-methyl-1-oxopentan-2-yl)carbamate], in experiment [1] (setting [2]), the IC50 stood at 780 nM.
Take `CC(C)C[C@H](NC(=O)OC(c1ccccc1)C1CCNCC1)C(=O)N[C@@H](CCCNC(=N)N)C(=O)c1nc2ccccc2s1` (stereo partly drawn) [Compound 11a, phenyl(piperidin-4-yl)methyl ((S)-1-(((S)-1-(benzo[d]thiazol-2-yl)-5-guanidino-1-oxopentan-2-yl)amino)-4-methyl-1-oxopentan-2-yl)carbamate]: the IC50 in experiment [1] (setting [2]) turned out to be 14000 nM; at activated hepsin (setting [3]), 8 nM.
The like results for `CC(C)C[C@H](NC(=O)OC(Cc1ccccc1)C1CCNCC1)C(=O)N[C@@H](CCCNC(=N)N)C(=O)c1nc2ccccc2s1` (stereo partly drawn) [Compound 11b, 2-phenyl-1-(piperidin-4-yl)ethyl ((S)-1-(((S)-1-(benzo[d]thiazol-2-yl)-5-guanidino-1-oxopentan-2-yl)amino)-4-methyl-1-oxopentan-2-yl)carbamate] were, in that order, 6000 nM and 2 nM.
In the case of `CC1CN(CC2CCN(Cc3ccccc3)CC2)C(=O)N(c2cccc(C(=N)N)c2)C1` (stereo not drawn) [SRI 31215, reference compound], the IC50 in experiment [1] (setting [2]) was determined as 20000 nM.
`CC(C)C[C@@H]1NC(=O)[C@@H](N)CCCCNC(=O)C[C@@H](C(=O)N[C@@H](CCCNC(=N)N)C(=O)c2nc3ccccc3s2)NC1=O` [VD1185, (2S,5S,13S)-13-amino-N—((S)-1-(benzo[d]thiazol-2-yl)-5-guanidino-1-oxopentan-2-yl)-2-isobutyl-3,7,14-trioxo-1,4,8-triazacyclotetradecane-5-carboxamide]: the IC50 in experiment [1] (setting [4]) is over 20000 nM; on matriptase, 1.1 nM; on activated hepsin (setting [5]) it was 92 nM.
In the case of `CC(C)C[C@@H]1NC(=O)[C@@H](N)CCCCNC(=O)CC[C@@H](C(=O)N[C@@H](CCCNC(=N)N)C(=O)c2nc3ccccc3s2)NC1=O` [VD2056, (2S,5S,14S)-14-amino-N—((S)-1-(benzo[d]thiazol-2-yl)-5-guanidino-1-oxopentan-2-yl)-2-isobutyl-3,8,15-trioxo-1,4,9-triazacyclopentadecane-5-carboxamide], the IC50 in experiment [1] (setting [4]) is over 20000 nM; at matriptase, 11.5 nM; on activated hepsin (setting [5]) it was 11.9 nM.
The like results for `CC(=O)N[C@H]1CCCCNC(=O)CC[C@@H](C(=O)N[C@@H](CCCNC(=N)N)C(=O)c2nc3ccccc3s2)NC(=O)[C@H](CCCNC(=N)N)NC1=O` [VD2109, (2S,5S,14S)-14-acetamido-N—((S)-1-(benzo[d]thiazol-2-yl)-5-guanidino-1-oxopentan-2-yl)-2-(3-guanidinopropyl)-3,8,15-trioxo-1,4,9-triazacyclopentadecane-5-carboxamide] were, in that order, 5050 nM, 0.13 nM and 0.08 nM.
For the molecule `CC(=O)N[C@H]1CCCCNC(=O)CCC(C(=O)N[C@H](CCCNC(=N)N)C(=O)c2nc3ccccc3s2)NC(=O)[C@H](CCCNC(=N)N)NC1=O` (stereo partly drawn) [VD2109A], the IC50 in experiment [1] (setting [4]) came to 4090 nM; on matriptase, 0.19 nM; on activated hepsin (setting [5]) it was 0.14 nM.
The like results for `CC(=O)N[C@H]1Cc2ccc(cc2)OC/C=C\C[C@@H](C(=O)NC(CCCNC(=N)N)C(=O)c2nc3ccccc3s2)NC(=O)[C@H](CC(C)C)NC1=O` (stereo partly drawn) [VD4010A] were, in that order, 197 nM, 31.6 nM and 1.14 nM.
Turning to `C=CCNC(=O)CC[C@H](NC(=O)[C@H](CC(C)C)NC(=O)[C@H](Cc1ccc(OCC=C)cc1)NC(C)=O)C(=O)N[C@@H](CCCNC(=N)N)C(=O)c1nc2ccccc2s1` [VD4022, (S)-2-((S)-2-((S)-2-acetamido-3-(4-(allyloxy)phenyl)propanamido)-4-methylpentanamido)-N5-allyl-N1-((S)-1-(benzo[d]thiazol-2-yl)-5-guanidino-1-oxopentan-2-yl)pentanediamide], the half-inhibitory concentration (IC50) in experiment [1] (setting [4]) worked out at 4750 nM; at matriptase it was 19.1 nM; at activated hepsin (setting [5]), 10.1 nM.
With `CC(=O)N[C@H]1Cc2ccc(cc2)OC/C=C\CNC(=O)C[C@@H](C(=O)N[C@H](CCCNC(=N)N)C(=O)c2nc3ccccc3s2)NC(=O)[C@H](CC(C)C)NC1=O` [VD4054A], the IC50 in experiment [1] (setting [4]) is over 20000 nM; at matriptase it was 76.6 nM; at activated hepsin (setting [5]), 14 nM.
Consider `CC(=O)N[C@H]1Cc2ccc(cc2)OCCCC[C@@H](C(=O)N[C@H](CCCNC(=N)N)C(=O)c2nc3ccccc3s2)NC(=O)[C@H](Cc2ccccc2)NC1=O` [VD4111A], for which the IC50 was 3280 nM in experiment [1] (setting [4]), 330 nM at matriptase and 12.7 nM on activated hepsin (setting [5]).
The like results for `CC(=O)N[C@@H](Cc1ccc(O)c([N+](=O)[O-])c1)C(=O)N[C@@H](CC(C)C)C(=O)N[C@@H](Cc1ccc(Br)cc1)C(=O)N[C@H](CCCNC(=N)N)C(=O)c1nc2ccccc2s1` [VD4112A] were, in that order, 3510 nM, 111 nM and 23.9 nM.
For `CC(=O)N[C@@H](Cc1ccc(O)c([N+](=O)[O-])c1)C(=O)N[C@@H](CC(C)C)C(=O)N[C@@H](Cc1ccc(Br)cc1)C(=O)N[C@@H](CCCNC(=N)N)C(=O)c1nc2ccccc2s1` [VD4112] the same measures were 14000 nM, 9.49 nM and 1.15 nM.

As usually defined, the IC50 is the concentration that inhibits the measured activity by half.

Source of the values: US12590123B2, “Compounds and methods for treating cancer, viral infections, and allergic conditions” (Washington University, priority 2019, dated 2026).
